Assay results: article PMC10439310 (Nature microbiology, 2022)

What was measured:
[1] = biological target: T1, BsIMPDH (Bacillus subtilis, UniProt P21879); details: for binding to BsIMPDH (in words): ITC, 25 °C, 25 μM BsIMPDH
[2] = biological target: T1, BsIMPDH; assay: biochemical
[3] = test system: BsIMPDH-ΔCBS; details: 10 μM Ap4A
[4] = test system: BsIMPDH-ΔCBS; details: presence of IMP and NAD+
[5] = biological target: T1, BsIMPDH; details: 50 μM BsIMPDH, 5 mM ligand, 25 °C
[6] = test system: E. coli IMPDH; details: cited from earlier work
[7] = test system: A. gossypii IMPDH; details: cited from earlier work
[8] = biological target: T1, BsIMPDH; assay: biochemical; remark: listed apart in the source
[9] = biological target: T1, BsIMPDH; assay: Mass photometry of BsIMPDH tetramer/octamer state; details: EC50 of BsIMPDH octamer formation, absence of substrates, 100 nM BsIMPDH
[10] = dinucleotide 10 μM, NAD+ constant, IMP variable

T1 sequence (P21879 whole entry): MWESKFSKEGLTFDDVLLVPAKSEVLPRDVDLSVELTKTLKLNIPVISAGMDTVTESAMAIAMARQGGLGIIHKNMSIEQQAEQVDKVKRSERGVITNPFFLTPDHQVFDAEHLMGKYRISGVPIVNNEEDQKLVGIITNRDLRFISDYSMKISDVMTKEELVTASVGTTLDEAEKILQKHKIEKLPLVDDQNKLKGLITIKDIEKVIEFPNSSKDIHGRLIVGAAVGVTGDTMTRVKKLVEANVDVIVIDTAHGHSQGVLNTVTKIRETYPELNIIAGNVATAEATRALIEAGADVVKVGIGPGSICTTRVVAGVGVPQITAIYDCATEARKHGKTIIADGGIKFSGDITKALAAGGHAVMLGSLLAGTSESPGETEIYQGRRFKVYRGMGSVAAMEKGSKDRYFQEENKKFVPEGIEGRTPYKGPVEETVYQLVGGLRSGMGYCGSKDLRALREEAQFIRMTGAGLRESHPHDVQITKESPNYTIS

With `Nc1nc2c(ncn2[C@@H]2O[C@H](COP(=O)(O)OP(=O)(O)OP(=O)(O)OC[C@H]3O[C@@H](n4cnc5c(N)ncnc54)[C@H](O)[C@@H]3O)[C@@H](O)[C@H]2O)c(=O)[nH]1` [Ap3G] the “binding to BsIMPDH (in words)” value [1] was “No binding”.

In the case of `Nc1ncnc2c1ncn2[C@@H]1O[C@H](COP(=O)(O)OP(=O)(O)OP(=O)(O)OP(=O)(O)OC[C@H]2O[C@@H](n3cnc4c(N)ncnc43)[C@H](O)[C@@H]2O)[C@@H](O)[C@H]1O` [Ap4A, diadenosine 5’,5’’’-P1,P4-tetraphosphate], the Ki [2] is reported as 15.8 µM, the “effect on BsIMPDH activity (in words)” value ([2]; Ap4A 1-100 μM) is reported as “potently reduced BsIMPDH activity” and the “difference in affinity between Ap4A and ATP” value ([1]; from ITC Kd values) is reported as “approximately 700 fold”. For the same compound, the “Ap4A-dependent regulation of enzymatic activity (in words)” value [3] was “insensitive to Ap4A-dependent regulation”, the “Ap4A-dependent tetramer-to-octamer equilibrium (in words)” value [4] was “insensitive to Ap4A-dependent regulation” and the “effect on conformational flexibility of CBS domains (HDX-MS, in words)” value [5] was “restrict the conformational flexibility of the CBS domains”. For the same compound, the “affinity relative to ATP” value [6] was “five-fold higher affinity than ATP”, the “binding (in words)” value [7] was “only with low affinity” and the Kd [8] was 7.4 ± 2.1 µM. It also gave an EC50 [9] of 90 µM.

In the case of `Nc1nc2c(ncn2[C@@H]2O[C@H](COP(=O)(O)OP(=O)(O)OP(=O)(O)OP(=O)(O)OC[C@H]3O[C@@H](n4cnc5c(N)ncnc54)[C@@H](O)C3O)[C@H](O)C2O)c(=O)[nH]1` (some centres unmarked) [Ap4G], the “binding to BsIMPDH (in words)” value [1] is reported as “No binding”.

For `Nc1ncnc2c1ncn2[C@@H]1O[C@H](COP(=O)(O)OP(=O)(O)OP(=O)(O)OP(=O)(O)OP(=O)(O)OC[C@H]2O[C@@H](n3cnc4c(N)ncnc43)[C@H](O)[C@@H]2O)[C@@H](O)[C@H]1O` [Ap5A], the “effect on BsIMPDH activity (in words)” value [2, 10] was “resulted in BsIMPDH inhibition”.

For `Nc1nc2c(ncn2[C@@H]2O[C@H](COP(=O)(O)OP(=O)(O)OP(=O)(O)OP(=O)(O)OP(=O)(O)OC[C@H]3O[C@@H](n4cnc5c(N)ncnc54)[C@H](O)[C@@H]3O)[C@@H](O)[C@H]2O)c(=O)[nH]1` [Ap5G], the “binding to BsIMPDH (in words)” value [1] is listed as “No binding” and the “binding (in words)” value [7] is listed as “well”.

In the case of `Nc1ncnc2c1ncn2[C@@H]1O[C@H](COP(=O)(O)OP(=O)(O)OP(=O)(O)OP(=O)(O)OP(=O)(O)OP(=O)(O)OC[C@H]2O[C@@H](n3cnc4c(N)ncnc43)[C@H](O)[C@@H]2O)[C@@H](O)[C@H]1O` [Ap6A], the “effect on BsIMPDH activity (in words)” value [2, 10] is reported as “resulted in BsIMPDH inhibition”.

For `Nc1nc2c(ncn2[C@@H]2O[C@H](COP(=O)(O)OP(=O)(O)O)[C@@H](O)[C@H]2O)c(=O)[nH]1` [GDP, guanosine-5’-mono-, di-, triphosphate], the “binding (in words)” value [7] is listed as “well”.
